# Laboratory results: paper PMC5651845, “A New Generation of Arachidonic Acid Analogues as Potential Neurological Agent Targeting Cytosolic Phospholipase A2” (Scientific Reports, 2017)
# Target: T1, recombinant cPLA2 (Homo sapiens, UniProt P47712)
# T1 construct: purchased US Biological P4074-03R
# T1 sequence (P47712 1-749): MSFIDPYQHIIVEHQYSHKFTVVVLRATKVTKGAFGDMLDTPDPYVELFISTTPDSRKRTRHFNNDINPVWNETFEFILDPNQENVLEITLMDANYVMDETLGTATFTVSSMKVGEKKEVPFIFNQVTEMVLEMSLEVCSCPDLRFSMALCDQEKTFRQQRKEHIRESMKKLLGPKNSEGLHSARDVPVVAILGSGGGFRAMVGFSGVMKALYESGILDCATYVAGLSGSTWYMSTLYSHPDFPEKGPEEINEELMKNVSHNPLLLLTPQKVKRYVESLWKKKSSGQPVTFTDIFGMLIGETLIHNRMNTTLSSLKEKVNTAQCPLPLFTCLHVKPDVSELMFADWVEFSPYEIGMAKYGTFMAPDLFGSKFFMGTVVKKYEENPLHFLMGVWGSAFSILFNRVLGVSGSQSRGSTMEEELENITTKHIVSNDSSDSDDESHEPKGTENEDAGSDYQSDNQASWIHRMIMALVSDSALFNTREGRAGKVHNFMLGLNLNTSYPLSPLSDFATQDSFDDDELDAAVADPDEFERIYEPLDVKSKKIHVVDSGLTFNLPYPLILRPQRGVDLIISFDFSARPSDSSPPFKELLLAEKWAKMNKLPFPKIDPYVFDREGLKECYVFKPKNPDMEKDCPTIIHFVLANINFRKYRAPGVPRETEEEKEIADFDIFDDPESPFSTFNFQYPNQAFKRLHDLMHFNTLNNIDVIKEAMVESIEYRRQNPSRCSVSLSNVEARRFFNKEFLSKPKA
# Test: EnzChek phospholipase A2 fluorogenic assay (% activity) at 10 μM
# Type: biochemical
# Conditions: 10 μM compound
# Description: The compounds were evaluated with a fluorogenic PLA2 assay kit (EnzChek® Phospholipase A2 Assay Kit, Catalog No: E10217) at a standard 10 μM concentration. Potential inhibitors were determined by their ability to lower cPLA2 activity to a greater extent than 1a.
# The assay was conducted according to the manufacturer’s instruction (E10217, Molecular Probes) with slight modification. Briefly, substrate solution was separately prepared by mixing 5 μL of DOPG, 5 μL of DOPC and 5 μL of substrate respectively in 1.5 mL of 1X phospholipase A2 reaction buffer. The mixture was vortexed vigorously for 3 min before allowing to stand at room temperature for 1 h. 48 μL of 1X phospholipase A2 reaction buffer were added into each well of a 96-wells plate. This was followed by addition of 1 μL of recombinant cPLA2 (P4074-03R, US Biological) and 1 μL of 1 mM of the respective compound dissolved in DMSO. The final concentration of the test compound achieved is 10 μM. The reaction was initiated by adding 50 μL of the substrate solution and incubating at room temperature for 1 h. Fluorescence was measured using a Varioskan plate reader (Thermo Scientific, MA, USA) by exciting at 485 nm, while fluorescence emission was detected at 515 nm. Positive control was performed when 1 μL of test compound was replaced by vehicle DMSO. % activity was expressed as the mean value of duplicate wells from three experiments. % activity was calculated by the following formula1 %activity=fluorescenceoftestedwell−background/fluorescenceofpostivecontrol−background
row,SMILES,inhibition at 10 µM
1,"CCCCC/C=C\C/C=C\C/C=C\C/C=C\CCCC(=O)C(F)(F)F [1a, arachidonyl trifluoromethyl ketone, reference compound]",60%
2,CCC/C=C\C/C=C\C/C=C\C/C=C\CCCC(=O)C(F)(F)F [1b],63%
3,CCCCCCCC/C=C\C/C=C\C/C=C\C/C=C\CCCC(=O)C(F)(F)F [1c],55%
4,O=C(CCC/C=C\C/C=C\C/C=C\C/C=C\c1ccccc1)C(F)(F)F [1d],68.2%
5,CCCCCC/C=C\C/C=C\C/C=C\C/C=C\CCC(=O)C(F)(F)F [1e],59.5%
6,"CCCCC/C=C\C/C=C\C/C=C\C/C=C\CCCC(N)=O [1m, (5Z,8Z,11Z,14Z)-icosa-5,8,11,14-tetraenamide]",39.3%
7,CCCCC/C=C\C/C=C\C/C=C\C/C=C\CCCC(=O)C(F)(F)Cl [1n],50.8%
8,CCCCC/C=C\C/C=C\C/C=C\C/C=C\CCCC(=O)C(F)F [1o],59.8%
9,CCCCC/C=C\C/C=C\C/C=C\C/C=C\CCCC(=O)NCCCC(=O)O [2a],60.3%
10,CCCCC/C=C\C/C=C\C/C=C\C/C=C\CCCC(=O)NCCCCC(=O)O [2b],73.3%
11,CCCCC/C=C\C/C=C\C/C=C\C/C=C\CCCC(=O)NCCCCCC(=O)O [2c],59.1%
12,CCCCC/C=C\C/C=C\C/C=C\C/C=C\CCCC(=O)Nc1cccc(C(=O)O)c1 [2d],86.8%
13,CCCCC/C=C\C/C=C\C/C=C\C/C=C\CCCC(=O)NCc1ccc(C(=O)O)cc1 [2e],74.2%
14,CCCCC/C=C\C/C=C\C/C=C\C/C=C\CCCC(=O)NCc1cccc(C(=O)O)c1 [2f],64.4%

# Same assay, conditions: 10 μM compound, 1 h, room temperature
row,SMILES,remaining activity at 10 µM
1,"CCCCC/C=C\C/C=C\C/C=C\C/C=C\CCCC(=O)C(F)(F)F [1a, arachidonyl trifluoromethyl ketone, reference compound]",40 ± 0.9%
2,CCC/C=C\C/C=C\C/C=C\C/C=C\CCCC(=O)C(F)(F)F [1b],37 ± 3.9%
3,CCCCCCCC/C=C\C/C=C\C/C=C\C/C=C\CCCC(=O)C(F)(F)F [1c],45 ± 3.5%
4,O=C(CCC/C=C\C/C=C\C/C=C\C/C=C\c1ccccc1)C(F)(F)F [1d],31.8 ± 2%
5,CCCCCC/C=C\C/C=C\C/C=C\C/C=C\CCC(=O)C(F)(F)F [1e],40.5 ± 3.6%
6,"CCCCC/C=C\C/C=C\C/C=C\C/C=C\CCCC(N)=O [1m, (5Z,8Z,11Z,14Z)-icosa-5,8,11,14-tetraenamide]",60.7 ± 1.9%
7,CCCCC/C=C\C/C=C\C/C=C\C/C=C\CCCC(=O)C(F)(F)Cl [1n],49.2 ± 4.5%
8,CCCCC/C=C\C/C=C\C/C=C\C/C=C\CCCC(=O)C(F)F [1o],40.2 ± 0.5%
9,CCCCC/C=C\C/C=C\C/C=C\C/C=C\CCCC(=O)NCCCC(=O)O [2a],39.7 ± 2.6%
10,CCCCC/C=C\C/C=C\C/C=C\C/C=C\CCCC(=O)NCCCCC(=O)O [2b],26.7 ± 0.1%
11,CCCCC/C=C\C/C=C\C/C=C\C/C=C\CCCC(=O)NCCCCCC(=O)O [2c],40.9 ± 1.1%
12,CCCCC/C=C\C/C=C\C/C=C\C/C=C\CCCC(=O)Nc1cccc(C(=O)O)c1 [2d],13.2 ± 1.2%
13,CCCCC/C=C\C/C=C\C/C=C\C/C=C\CCCC(=O)NCc1ccc(C(=O)O)cc1 [2e],25.8 ± 0.1%
14,CCCCC/C=C\C/C=C\C/C=C\C/C=C\CCCC(=O)NCc1cccc(C(=O)O)c1 [2f],35.6 ± 2.1%

# Target: T1, recombinant cPLA2
# Test: EnzChek phospholipase A2 fluorogenic assay (IC50)
# Type: biochemical
# Conditions: not given
# Description: The assay was conducted as described above. Instead of adding a fixed concentration of the test compound, various concentrations of compound were reconstituted in DMSO. 48 μL of 1X phospholipase A2 reaction buffer were added into each well of a 96-wells plate. This was followed by addition of 1 μL of recombinant cPLA2 (P4074-03R, US Biological) and 1 μL of the respective concentration of the test compound dissolved in DMSO. The reaction was initiated by adding 50 μL of the substrate solution and incubating at room temperature for 1 h. Fluorescence was measured using a Varioskan plate reader by exciting at 485 nm, while fluorescence emission was detected at 515 nm. Positive control was performed when 1 μL of test compound was replaced by vehicle DMSO. IC50 was expressed as the mean value of duplicate wells from three experiments.
row,IC50,SMILES
1,16.5 ± 3 µM,"CCCCC/C=C\C/C=C\C/C=C\C/C=C\CCCC(=O)C(F)(F)F [1a, arachidonyl trifluoromethyl ketone, reference compound]"

# Test system: BV-2 cells
# Test: MTS cell proliferation assay on BV-2 cells
# Type: cell-based, murine
# Conditions: 10 μM, 48 h and 72 h, vs vehicle control
# Description: (§1) To explore whether the inhibitors are cytotoxic, MTS assay were conducted on BV-2 cells, a murine microglial cell line derived from post-natal mouse cerebella, and HEK293T cells that are derived from human embryonic kidney. Both cell types were treated with 10 μM of 1a, 2g and 2i for 48 h and 72 h (Fig. 3A,B). Dimethyl sulfoxide (DMSO) vehicle control was also included as the compounds were dissolved in DMSO.
# (§2) Cells were plated on a 96-wells plate and grown for 24 h to a density of 8000 cells per well for both HEK293T and BV-2 cells. Cells were cultured at 37 °C under a 5% CO2 environment in 100 μL of culture medium. Thereafter, the compound of interest dissolved in culture medium at a concentration of 10 μM was replaced into each well. DMSO was added as vehicle in the control group. 3 biological replicates were performed. The plates were then incubated at 37 °C with 5% CO2 for 48 h and 72 h. At each individual time point, 20 μL of CellTiter 96® AQueous One Solution (MTS reagent) was added into each well and re-incubated at 37 °C with 5% CO2 without light for 3 h. Colorimetric readings were taken using a Varioskan plate reader at 490 nm and analyzed. Three independent biological repeats with four technical replicates were performed.
row,SMILES,cytotoxicity (MTS) on BV-2 cells
1,"CCCCC/C=C\C/C=C\C/C=C\C/C=C\CCCC(=O)C(F)(F)F [1a, arachidonyl trifluoromethyl ketone, reference compound]",no statistical differences in cell survival

# Test system: HEK293T cells
# Test: MTS cell proliferation assay on HEK293T cells
# Type: cell-based, human
# Conditions: 10 μM, 48 h and 72 h, vs vehicle control
# Description: as §1, §2
row,SMILES,cytotoxicity (MTS) on HEK293T cells
1,"CCCCC/C=C\C/C=C\C/C=C\C/C=C\CCCC(=O)C(F)(F)F [1a, arachidonyl trifluoromethyl ketone, reference compound]",no statistical differences in cell survival
